{"source": "paper PMC3621900", "about": "(Nature Communications, 2013)", "tested_on": "nicotinic acetylcholine receptor (nAChR)", "test": "whole-cell patch clamp", "parameters": "species or system Apis mellifera", "data": [{"smiles": "O=[N+]([O-])NC1=NCCN1Cc1ccc(Cl)nc1", "note": "[imidacloprid]", "values": [{"measurement": "IC50", "value": 295, "unit": "nM"}]}]}
